Results on 21 compounds are retold here after US12162893B2 (Erasca, Inc., priority 2020, dated 2024).

The structures appear in SMILES notation.

In the test the target is T1, mutant G12C K-RAS (Homo sapiens, UniProt P01116, G12C).
T1 construct: made in house; host or cells: E. coli BL21
Kind of test: covalent adduct formation (CAF) with mutant G12C K-RAS. In kind it is binding. Set-up: CAF: unit not given here. As to conditions: for % CAF @ 10 μM,1 h: Table 6; for % CAF (60 min) / CAF: after 60 minutes at 10 micromolar; for CAF: Table 3, Pyridone Core-Morpholine Unsubstituted. Here is the method: Embodiments disclosed herein are further illustrated by the following examples in Tables 1-4 and the Examples hereinbelow. The Tables indicate the compound number, structure, the observed mass spectral molecular weight peak, and covalent adduct formation (CAF) with a mutant G12C K-RAS after 60 minutes at a concentration of 10 micromolar.

`C=CC(=O)N1C[C@H](C)N(c2nc(=O)n3c4c(c(-c5cccc6ccccc56)c(Cl)cc24)OC[C@H]3Cn2ccnc2)C[C@H]1C` (atropisomer, axis not shown) [Example 317, (3R,10R)-3-((1H-imidazol-1-yl)methyl)-7-((2S,5R)-4-acryloyl-2,5-dimethylpiperazin-1-yl)-9-chloro-10-(naphthalen-1-yl)-2,3-dihydro-5H-[1,4]oxazino[2,3,4-ij]quinazolin-5-one]: the “% CAF @ 10 μM,1 h” value is 72.8%.

Consider `C=CC(=O)N1C[C@H](C)N(c2nc(=O)n3c4c(c(-c5ccc(F)cc5F)c(Cl)cc24)OC[C@H]3CCCN2CC[C@H](OC)C2)C[C@H]1C` [Example 334, (3R)-7-((2S,5R)-4-acryloyl-2,5-dimethylpiperazin-1-yl)-9-chloro-10-(2,4-difluorophenyl)-3-(3-((S)-3-methoxypyrrolidin-1-yl)propyl)-2,3-dihydro-5H-[1,4]oxazino[2,3,4-ij]quinazolin-5-one], for which the “% CAF @ 10 μM,1 h” value turned out to be 84.6%.

In the case of `C=CC(=O)N1C[C@H](C)N(c2nc(=O)n3c4c(c(-c5c(O)cccc5F)c(Cl)cc24)OC[C@@H]3CN2CCN(C)CC2)C[C@H]1C` (atropisomer, axis not shown) [Example 314, (3S,10S)-7-((2S,5R)-4-acryloyl-2,5-dimethylpiperazin-1-yl)-9-chloro-10-(2-fluoro-6-hydroxyphenyl)-3-((4-methylpiperazin-1-yl)methyl)-2,3-dihydro-5H-[1,4]oxazino[2,3,4-ij]quinazolin-5-one], the “% CAF @ 10 μM,1 h” value is on record as 74.8%.

As for `C=CC(=O)N1C[C@H](C)N(c2nc(=O)n3c4c(c(-c5ccc(F)cc5F)c(Cl)cc24)OC[C@H]3CCCO)C[C@H]1C` [Example 251, (3R)-7-((2S,5R)-4-acryloyl-2,5-dimethylpiperazin-1-yl)-9-chloro-10-(2,4-difluorophenyl)-3-(3-hydroxypropyl)-2,3-dihydro-5H-[1,4]oxazino[2,3,4-ij]quinazolin-5-one], the “% CAF @ 10 μM,1 h” value worked out at 85.3%.

In the case of `C=CC(=O)N1C[C@H](C)N(c2nc(=O)n3c4c(c(-c5cccc6ccccc56)c(Cl)cc24)OC[C@H]3CN2CCN(C)CC2)C[C@H]1C` (atropisomer, axis not shown) [Example 294, (3R,10R)-7-((2S,5R)-4-acryloyl-2,5-dimethylpiperazin-1-yl)-9-chloro-3-((4-methylpiperazin-1-yl)methyl)-10-(naphthalen-1-yl)-2H-[1,4]oxazino[2,3,4-ij]quinazolin-5(3H)-one], the “% CAF @ 10 μM,1 h” value is listed as 75.2%.

Regarding `C=CC(=O)N1CCN(c2nc(=O)n3c4c(c(-c5ccc(F)cc5F)c(Cl)cc24)OCC3)[C@@H](CO)C1` [Example 303, 7-((R)-4-acryloyl-2-(hydroxymethyl)piperazin-1-yl)-9-chloro-10-(2,4-difluorophenyl)-2,3-dihydro-5H-[1,4]oxazino[2,3,4-ij]quinazolin-5-one], the “% CAF @ 10 μM,1 h” value is listed as 15.4%.

As for `C=CC(=O)N1C[C@H](C)N(c2nc(=O)n3c4c(c(-c5c(C)ccc6[nH]ncc56)c(Cl)cc24)OC[C@H]3Cn2cccn2)C[C@H]1C` (atropisomer, axis not shown) [Example 320, (3R,10R)-3-((1H-pyrazol-1-yl)methyl)-7-((2S,5R)-4-acryloyl-2,5-dimethylpiperazin-1-yl)-9-chloro-10-(5-methyl-1H-indazol-4-yl)-2,3-dihydro-5H-[1,4]oxazino[2,3,4-ij]quinazolin-5-one], the “% CAF @ 10 μM,1 h” value is recorded as 94.2%.

Turning to `C=CC(=O)N1C[C@H](C)N(c2nc(=O)n3c4c(c(-c5ccc(Cl)cc5F)ccc24)OCC3)C[C@H]1C` [Example 17, 7-((2S,5R)-4-acryloyl-2,5-dimethylpiperazin-1-yl)-10-(4-chloro-2-fluorophenyl)-2H-[1,4]oxazino[2,3,4-ij]quinazolin-5(3H)-one], the “% CAF (60 min)” value (Table 1, Pyrimidone Core-Morpholine Unsubstituted) is on record as 2%.

With `C=CC(=O)N1C[C@H](C)N(c2nc(=O)n3c4c(c(-c5c(C)ccc6[nH]ncc56)c(Cl)cc24)OC[C@@H]3CCCN2C3CCC2COC3)C[C@H]1C` [Example 281, (3S,10S)-3-(3-(3-oxa-8-azabicyclo[3.2.1]octan-8-yl)propyl)-7-((2S,5R)-4-acryloyl-2,5-dimethylpiperazin-1-yl)-9-chloro-10-(5-methyl-1H-indazol-4-yl)-2,3-dihydro-5H-[1,4]oxazino[2,3,4-ij]quinazolin-5-one], the “% CAF @ 10 μM,1 h” value turned out to be 0%.

With `C=CC(=O)N1CCN(c2nc(=O)n3c4c(c(-c5c(O)cccc5F)c(Cl)cc24)OC[C@@H]3CN2CCC(F)(F)C2)[C@@H](C)C1` (atropisomer, axis not shown) [Example 228, (3S,10S)-7-((S)-4-acryloyl-2-methylpiperazin-1-yl)-9-chloro-3-((3,3-difluoropyrrolidin-1-yl)methyl)-10-(2-fluoro-6-hydroxyphenyl)-2,3-dihydro-5H-[1,4]oxazino[2,3,4-ij]quinazolin-5-one], the “% CAF @ 10 μM,1 h” value amounted to 98%.

Regarding `C=CC(=O)N1C[C@H](C)N(c2nc(=O)n3c4c(c(-c5ccc(F)cc5F)c(Cl)cc24)O[C@@H](CCCN2CCOCC2)C3)C[C@H]1C` [Example 258, (2S)-7-((2S,5R)-4-acryloyl-2,5-dimethylpiperazin-1-yl)-9-chloro-10-(2,4-difluorophenyl)-2-(3-morpholinopropyl)-2,3-dihydro-5H-[1,4]oxazino[2,3,4-ij]quinazolin-5-one], the “% CAF @ 10 μM,1 h” value is given as 17.7%.

Turning to `C=CC(=O)N1C[C@H](C)N(c2nc(=O)n3c4c(c(-c5ccc(F)cc5F)c(Cl)cc24)OC[C@H]3CCCN(C)CC(F)(F)F)C[C@H]1C` [Example 284, (3R)-7-((2S,5R)-4-acryloyl-2,5-dimethylpiperazin-1-yl)-9-chloro-10-(2,4-difluorophenyl)-3-(3-(methyl(2,2,2-trifluoroethyl)amino)propyl)-2,3-dihydro-5H-[1,4]oxazino[2,3,4-ij]quinazolin-5-one], the “% CAF @ 10 μM,1 h” value is recorded as 92.4%.

In the case of `C=CC(=O)N1C[C@H](C)N(c2nc(=O)n3c4c(c(-c5c(O)cccc5F)c(Cl)cc24)OC[C@H]3CO)C[C@H]1C` [Example 32, (3R,10R)-7-((2S,5R)-4-acryloyl-2,5-dimethylpiperazin-1-yl)-9-chloro-10-(2-fluoro-6-hydroxyphenyl)-3-(hydroxymethyl)-2H-[1,4]oxazino[2,3,4-ij]quinazolin-5(3H)-one], for the setting “Table 2, Pyrimidone Core-Morpholine Substituted”, the “% CAF (60 min)” value was 0%.

`C=CC(=O)N1C[C@H](C)N(c2nc(=O)n3c4c(c(-c5cc(Cl)ccc5F)c(Cl)cc24)OC[C@H]3CCCN2CCOCC2)C[C@H]1C` [Example 216, (3R)-7-((2S,5R)-4-acryloyl-2,5-dimethylpiperazin-1-yl)-9-chloro-10-(5-chloro-2-fluorophenyl)-3-(3-morpholinopropyl)-2,3-dihydro-5H-[1,4]oxazino[2,3,4-ij]quinazolin-5-one]: the “% CAF @ 10 μM,1 h” value is given as 73.8%.

`C=CC(=O)N1CCN(c2nc(=O)n3c4c(c(-c5ccc(F)cc5F)c(Cl)cc24)OCC3)[C@@H](C)C1` [Example 275, 7-((S)-4-acryloyl-2-methylpiperazin-1-yl)-9 chloro-10-(2,4-difluorophenyl)-2,3-dihydro-5H-[1,4]oxazino[2,3,4-ij]quinazolin-5-one]: the “% CAF @ 10 μM,1 h” value is recorded as 89.6%.

In the case of `C=CC(=O)N1C[C@H](C)N(c2nc(=O)n3c4c(c(-c5c(O)cccc5F)c(Cl)cc24)OC[C@H]3CN2CCN(C)CC2)C[C@H]1C` (atropisomer, axis not shown) [Example 300, (3R,10R)-7-((2S,5R)-4-acryloyl-2,5-dimethylpiperazin-1-yl)-9-chloro-10-(2-fluoro-6-hydroxyphenyl)-3-((4-methylpiperazin-1-yl)methyl)-2,3-dihydro-5H-[1,4]oxazino[2,3,4-ij]quinazolin-5-one], the “% CAF @ 10 μM,1 h” value was determined as 0%.

With `C=CC(=O)N1C[C@H](C)N(c2nc(=O)n3c4c(c(-c5ccc(F)cc5F)c(Cl)cc24)OC[C@H]3CCCN2C3CCC2COC3)C[C@H]1C` [Example 254, (3R)-3-(3-(3-oxa-8-azabicyclo[3.2.1]octan-8-yl)propyl)-7-((2S,5R)-4-acryloyl-2,5-dimethylpiperazin-1-yl)-9-chloro-10-(2,4-difluorophenyl)-2,3-dihydro-5H-[1,4]oxazino[2,3,4-ij]quinazolin-5-one], the “% CAF @ 10 μM,1 h” value was 99.5%.

Compound `C=CC(=O)N1CCN(c2c(C#N)c(=O)n3c4c(c(-c5c(O)cccc5F)c(Cl)cc24)OCC3)[C@@H](C)C1` [Example 39, (S)-7-((S)-4-acryloyl-2-methylpiperazin-1-yl)-9-chloro-10-(2-fluoro-6-hydroxyphenyl)-5-oxo-3,5-dihydro-2H-[1,4]oxazino[2,3,4-ij]quinoline-6-carbonitrile] displayed a CAF of 0.

For the compound `C=CC(=O)N1C[C@H](C)N(c2nc(=O)n3c4c(c(-c5c(O)cccc5F)c(Cl)cc24)OC[C@@H]3CCCN2CCOCC2)C[C@H]1C` (atropisomer, axis not shown) [Example 225, (3S,10R)-7-((2S,5R)-4-acryloyl-2,5-dimethylpiperazin-1-yl)-9-chloro-10-(2-fluoro-6-hydroxyphenyl)-3-(3-morpholinopropyl)-2,3-dihydro-5H-[1,4]oxazino[2,3,4-ij]quinazolin-5-one], the “% CAF @ 10 μM,1 h” value worked out at 4.4%.

Regarding `C=CC(=O)N1C[C@H](C)N(c2nc(=O)n3c4c(c(-c5ccc(F)cc5F)c(Cl)cc24)OC[C@@H]3COC2CCN(C)CC2)C[C@H]1C` [Example 276, (3S)-7-((2S,5R)-4-acryloyl-2,5-dimethylpiperazin-1-yl)-9-chloro-10-(2,4-difluorophenyl)-3-(((1-methylpiperidin-4-yl)oxy)methyl)-2H-[1,4]oxazino[2,3,4-ij]quinazolin-5(3H)-one], the “% CAF @ 10 μM,1 h” value is on record as 73.5%.

The compound `C=CC(=O)N1CCN(c2cc(=O)n3c4c(c(-c5ccc(F)cc5F)ccc24)CCC3)CC1` [Example 47, 1-(4-acryloylpiperazin-1-yl)-8-(2,4-difluorophenyl)-6,7-dihydropyrido[3,2,1-ij]quinolin-3(5H)-one] yielded a CAF of 2.
